How the values were obtained:
[1] = tested on: intraocular pressure in dog eyes; experiment: intraocular pressure in eyes of dogs (pneumatonometry); assay type: in vivo, beagle dogs; conditions: 6 hours after administr., dog eye
Protocol: The assay is descibed as follows: male and female beagle dogs weighing 10-15 kg had been trained for a minimum of 2 months so that intraocular pressure could be measured without the use of restraining devices. Intraocular pressure was measured by pneumatonometry using applanation tonometers (Alcon). One minute prior to tonometry, 25 μl of proparacaine (Allergan, Irvine Calif.) was applied to minimize ocular discomfort during the procedure. Determination of the effects of the compounds of the invention on intraocular pressure involved administration of 1 to 25 μl of solution of the compound to one eye and an equal volume of vehicle to the contralateral eye as a control.
The effect of the compounds of the invention to lower intraocular pressure in dog eyes, in accordance with the above-described assay is shown in Table 1 with respect to the following compounds: […]

[2] = tested on: Swiss 3T3 cells; experiment: inhibition of DNA synthesis: incorporation of tritium labeled thymidine into Swiss 3T3 cells; assay type: cell-based, mouse; conditions: 22 hours incubation, 5 hours pulse-labeling, CPM per μg DNA, mean of quadruplicates, vehicle 2601
Protocol: In addition, compounds of the invention were also found to inhibit DNA synthesis as observed in an assay where the incorporation of tritium labeled thymidine into Swiss 3T3 cells is measured. The assay is described as follows.
Swiss mouse 3T3 cells were maintained in Dulbecco's modified Eagle's medium (DMEM) low glucose and supplemented with 10% fetal bovine serum FBS), 2 mM 1-glutamine and 1% antibiotic-antimycotic 100×. The cultures were incubated in 5% CO2 in air at 37° C. Confluent cultures were trypsinized and plated in quadruplicate cultures for experiments. Cells were plated at 1×10^5 cells per 35 mm well in DMEM containing 10% FBS in 6-well cluster plates and allowed to become confluent in 3 days. The cells were then made quiescent by washing them with Hank's balanced salt solution (HBSS) and incubating them for 24 hours in DMEM with 0.5% FBS. The cultures were then refed fresh DMEM containing 0.5% FBS and various concentrations of the test compounds. All compounds were dissolved in absolute ethanol, diluted with sterile filtered normal saline and added to the medium so that the final ethanol control cultures were incubated in medium containing 0.01% or less […]. […]
Pulse-labeling of the cultures consisted of collecting the conditioned, drug-treated or control containing media, then adding 1μ Ci/ml [^3 H]-TdR and incubating the cultures in the [^3 H]-TdR containing medium for 5 hours. […] Radioactivity was measured by liquid-scintillation counting using Beckman HP cocktail. […] After centrifugation as before, an aliquot of the supernatant containing [^3 H]-TdR incorporated into DNA (S2) was assayed for radioactivity by scintillation counting.
An aliquot of the remaining S2 supernatant was assayed for quantity of DNA by the diphenylamine method. […] Absorbance of the DNA standards and samples was measured in a Beckman Biomek spectrophotometer at 600 nm wavelength.
The data was expressed as CPM ([^3 H]-TdR incorporated into DNA) per μg DNA and the mean of the quadruplicate samples was obtained for each experiment. […]

Structure (SMILES) | Change in IOP ([1]; 0.1 %) | further results
COC(=O)CCCCc1cc2c(cc1C(O)CCc1ccccc1)OCO2 (racemic) [Compound 1, (±)-Methyl5-[6-(1-hydroxy-3-phenylpropyl)]-1,3-benzodioxol-5-yl]-pentanoate] | -1.0 mm of Hg | –
OCCCCCc1cc2c(cc1C(O)CCc1ccccc1)OCO2 (racemic) [Compound 2, (±)-5-[6-(1-hydroxy-3-phenylpropyl)]-1,3-benzodioxol-5yl]pentanol] | -1.25 mm of Hg | –
CCCCCC(O)c1cc2c(cc1CCCCCO)OCO2 (racemic) [Compound 3, (±)-5-[6-(1-hydroxy)hexyl]-1,3-benzodioxol-5-yl]-pentanol] | -4.2 mm of Hg | Change in IOP ([1]; 0.01 %): -3.0 mm of Hg
CCCCCC(O)c1cc(OC)c(OC)cc1CCCCC(=O)O (racemic) [Compound 4, (±)-5-[2-(1-Hydroxy)hexyl-4,5-dimethoxyphenyl-]-1-pentanoic acid] | -1.2 mm of Hg | –
CCCCCC(O)c1cc2c(cc1CCCCC(=O)O)OCO2 (racemic) [Compound 5, (±)-5-[6-(1-hydroxy)hexyl]-1,3-benzodioxol-5-yl]-pentanoic acid] | – | CPM ([3H]-TdR incorporated into DNA) ([2]; 10^-5 M): 1454 CPM; CPM ([3H]-TdR incorporated into DNA) ([2]; 10^-6 M): 1598 CPM; CPM ([3H]-TdR incorporated into DNA) ([2]; 10^-7 M): 2102 CPM
OCCCCCc1cc2c(cc1C(O)CCc1cccs1)OCO2 (racemic) [Compound 6, (±)-5-[[6-(1-hydroxy-3-(2-thienyl)propyl]-1,3-benzodioxolyl]pentanol] | -1.1 mm of Hg | –
O=C(O)CCCCc1cc2c(cc1C(O)CCc1cccs1)OCO2 (racemic) [Compound 7, (±)-5-[[6-(1-hydroxy-3-(2-thienyl)propyl)]-1,3-benzodioxolyl]pentanoic acid] | -1.0 mm of Hg | –

Source: patent US5523296A, “1,3-benzodioxole and 1,2-dialkoxybenzene derivatives as ocular hypotensive agents” (Allergan, Inc., priority 1994, dated 1996)
